Three substances from ChEMBL document CHEMBL1148865, “A long-acting selective neuropeptide Y2 receptor PEGylated peptide agonist reduces food intake in mice” (Bioorg Med Chem Lett, 2007) can be followed below.

The target in test [1] is T1, Neuropeptide Y receptor type 2 (Homo sapiens, UniProt P49146).
T1 sequence (P49146 whole entry): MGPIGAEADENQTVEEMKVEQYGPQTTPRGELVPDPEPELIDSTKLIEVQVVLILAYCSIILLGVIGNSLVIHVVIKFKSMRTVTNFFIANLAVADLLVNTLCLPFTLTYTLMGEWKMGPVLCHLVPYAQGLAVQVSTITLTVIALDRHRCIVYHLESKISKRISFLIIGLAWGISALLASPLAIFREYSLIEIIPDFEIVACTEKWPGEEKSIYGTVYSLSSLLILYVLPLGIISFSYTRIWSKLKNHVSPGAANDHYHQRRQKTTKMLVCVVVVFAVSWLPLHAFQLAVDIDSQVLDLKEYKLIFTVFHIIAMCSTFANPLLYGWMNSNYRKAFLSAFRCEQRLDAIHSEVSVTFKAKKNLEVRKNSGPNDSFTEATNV
Nature of the test: Agonist activity at human NPY2 receptor in KAN-TS cells by [35S]GTP-gamma-S binding assay. In kind it is functional, cell-based. (GTPγS is a poorly hydrolysed GTP analogue; its binding reports G protein activation.)

For test [2], the target named is T2, Neuropeptide Y receptor type 1 (Homo sapiens, UniProt P25929).
T2 sequence (P25929 whole entry): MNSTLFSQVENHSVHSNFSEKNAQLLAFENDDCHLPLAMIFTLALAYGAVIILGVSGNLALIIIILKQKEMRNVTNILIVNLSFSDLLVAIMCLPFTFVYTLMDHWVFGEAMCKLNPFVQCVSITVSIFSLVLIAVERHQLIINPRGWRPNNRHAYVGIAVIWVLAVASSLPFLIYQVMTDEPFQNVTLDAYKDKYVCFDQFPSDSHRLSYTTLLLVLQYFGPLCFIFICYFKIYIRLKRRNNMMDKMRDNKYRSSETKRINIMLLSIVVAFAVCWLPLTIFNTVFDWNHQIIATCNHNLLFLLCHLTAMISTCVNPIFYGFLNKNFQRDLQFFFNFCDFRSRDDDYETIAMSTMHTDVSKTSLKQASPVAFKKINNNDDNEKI
Put plainly: Displacement of [125I]PYY from human NPY1 receptor in SK-N-MC cells. In kind it is cell-based.

Test [3] has as its target T3, Neuropeptide Y receptor type 5 (Homo sapiens, UniProt Q15761).
T3 sequence (Q15761 whole entry): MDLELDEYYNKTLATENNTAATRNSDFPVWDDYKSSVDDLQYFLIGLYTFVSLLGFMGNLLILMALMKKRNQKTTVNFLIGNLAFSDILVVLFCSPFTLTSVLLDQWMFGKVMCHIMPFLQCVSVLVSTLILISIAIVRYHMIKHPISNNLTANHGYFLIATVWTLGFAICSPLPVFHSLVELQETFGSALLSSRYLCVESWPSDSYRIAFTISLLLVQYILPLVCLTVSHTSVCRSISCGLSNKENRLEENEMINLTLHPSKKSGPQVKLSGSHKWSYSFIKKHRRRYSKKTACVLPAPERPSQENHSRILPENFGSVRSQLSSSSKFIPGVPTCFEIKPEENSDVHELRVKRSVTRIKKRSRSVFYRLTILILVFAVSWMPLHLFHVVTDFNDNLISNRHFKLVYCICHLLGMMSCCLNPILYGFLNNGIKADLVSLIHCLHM
Put plainly: Displacement of [125I]PYY from human NPY5 receptor in HEK293 cells. It is filed as cell-based.

Test [4] concerns the target T4, Neuropeptide Y receptor type 2 (Homo sapiens) (UniProt P49146).
T4 sequence (whole entry): T1 sequence (P49146 whole entry)
Put plainly: Agonist activity at human NPY2 receptor in KAN-TS cells at 1 uM by [35S]GTP-gamma-S binding assay. In kind it is functional, cell-based.

The target of test [5] is T1, Neuropeptide Y receptor type 2. Put plainly: Displacement of [125I]PYY from human NPY2 receptor in KAN-TS cells by SPA assay. It is filed as cell-based. In general terms: Displacement assays read how much labelled ligand stays bound in the presence of the test substance.
In the next test the test system is Mus musculus. Nature of the test: Reduction of food intake in C57BL/6 mouse at 10 mg/kg, sc after 1 to 24 hrs. In kind it is functional. Also noted: scale not given: the % may be the effect or the level left. Conditions: route subcutaneous.

On to Ac-CLRHYLNLLTRQRY-NH2, for which the EC50 in test [1] was found to be 33 nM. Further, the figures for the Ki in test [2], in test [3] and in test [5] were more than 1000 nM, more than 1000 nM and 8.2 nM, respectively. This substance also had an E/Emax in test [4] of 94%.
The substance Ac-LRHYLNLLTRQRY-NH2 showed a concentration for a half-maximal effect (EC50) in test [1] of 6 nM. This substance came in with an Activity in the test on Mus musculus of 6%. In addition, the inhibition constant Ki in test [2] is 210 nM; in test [3], more than 1000 nM; in test [5] it was 5 nM. The E/Emax in test [4] was found to be 100%.
In turn, Ac-LRHYLNLLTRQRYC-NH2 displayed an EC50 in test [1] of 160 nM. Moreover, the Ki is more than 1000 nM in test [2], more than 1000 nM in test [3] and 200 nM in test [5]. This substance also showed an E/Emax in test [4] of 81%.

As usually defined, the EC50 is the concentration that produces a half-maximal response. The term Ki denotes the dissociation constant of the complex between target and ligand, obtained from inhibition or displacement.
